Read-outs that look alike come from different tables or passages of the source. Where a SMILES comes first, the peptide text is derived from it. Bridges are numbered along the chain shown (N, C = ends). [ ]: non-standard residue; d: D form. Nle = CCCC[C@H](N)C(=O)O
Experiments:
[1] = target: T1, human Kv1.1 (Homo sapiens, UniProt Q09470); assay: cell-based
T1 construct: expressed in transfected cells; host or cells: CHO

[2] = target: T2, human Kv1.6 (Homo sapiens, UniProt P17658); assay: cell-based
T2 construct: expressed in transfected cells; host or cells: CHO
T2 sequence (P17658 whole entry): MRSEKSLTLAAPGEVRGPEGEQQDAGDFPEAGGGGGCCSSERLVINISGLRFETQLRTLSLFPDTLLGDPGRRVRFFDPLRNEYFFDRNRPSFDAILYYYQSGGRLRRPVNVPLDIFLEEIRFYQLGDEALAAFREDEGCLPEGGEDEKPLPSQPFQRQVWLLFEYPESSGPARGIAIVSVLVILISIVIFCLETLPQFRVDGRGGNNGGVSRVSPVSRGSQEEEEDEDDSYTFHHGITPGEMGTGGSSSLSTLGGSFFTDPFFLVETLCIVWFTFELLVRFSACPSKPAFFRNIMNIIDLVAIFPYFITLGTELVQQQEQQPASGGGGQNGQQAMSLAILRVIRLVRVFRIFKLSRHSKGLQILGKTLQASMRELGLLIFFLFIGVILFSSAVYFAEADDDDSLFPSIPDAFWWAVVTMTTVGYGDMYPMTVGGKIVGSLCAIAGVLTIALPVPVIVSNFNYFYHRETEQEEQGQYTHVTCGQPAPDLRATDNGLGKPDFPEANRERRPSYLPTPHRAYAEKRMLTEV

[3] = system: Human peripheral blood mononuclear cells (PBMCs); type: cell-based; conditions: geometric mean, at least 4 replicates, Example 5a; for IC50: read-out: anti-CD3 PBMC/IL-2 IC50
Protocol: Human peripheral blood mononuclear cells (PBMCs) were used to assess the effects of Kv1.3 blocker reference compounds on T-cell activation as determined by IL-2 (cytokine) release after stimulation with anti-CD3.
Human PBMCs were obtained from Precision for Medicine (Frederick, MD). Cells from 5 donors were used. Plate-bound anti-CD3 was used to stimulate bulk T cells in the PBMC preparations. Briefly, 96-well plates were coated with anti-CD3 antibody for 2 hrs at 37° C., using 50 μL of a 0.5 μg/mL anti-CD3 solution diluted in 1×PBS. Thereafter the plates were washed twice.
Kv1.3 blockers as shown in Table 8a were diluted in medium (RPMI 1640 with Glutamax-I containing 10% v/v Fetal Bovine Serum, 1% v/v penicillin-streptomycin solution) and added in a volume of 100 μL at concentrations ranging from 0.01 pM to 100 nM (tenfold dilutions). […] Finally, 1×10^5 PBMCs were added to each well in a volume of 100 μL, giving a final volume of 200 μL per well. The plates were incubated for 20-24 hours in a 37 °C/5% CO2 incubator. After centrifugation of the plates, 25 μl supernatant was transferred to IL-2 detection plates (MSD Human IL-2 Tissue Culture Kit, cat #K151AHB-2) and IL-2 was measures as described by the manufacturer (Meso Scale Discovery, Rockville, Maryland, USA).
Results are shown in Table 8a as geometric mean of IC50 values obtained from anti-CD3 stimulated human PBMC assays. All values derive from at least 4 replicates.

[4] = target: T3, human Kv1.2 (Homo sapiens, UniProt P16389); assay: cell-based
T3 construct: expressed in transfected cells; host or cells: CHO
T3 sequence (P16389 whole entry): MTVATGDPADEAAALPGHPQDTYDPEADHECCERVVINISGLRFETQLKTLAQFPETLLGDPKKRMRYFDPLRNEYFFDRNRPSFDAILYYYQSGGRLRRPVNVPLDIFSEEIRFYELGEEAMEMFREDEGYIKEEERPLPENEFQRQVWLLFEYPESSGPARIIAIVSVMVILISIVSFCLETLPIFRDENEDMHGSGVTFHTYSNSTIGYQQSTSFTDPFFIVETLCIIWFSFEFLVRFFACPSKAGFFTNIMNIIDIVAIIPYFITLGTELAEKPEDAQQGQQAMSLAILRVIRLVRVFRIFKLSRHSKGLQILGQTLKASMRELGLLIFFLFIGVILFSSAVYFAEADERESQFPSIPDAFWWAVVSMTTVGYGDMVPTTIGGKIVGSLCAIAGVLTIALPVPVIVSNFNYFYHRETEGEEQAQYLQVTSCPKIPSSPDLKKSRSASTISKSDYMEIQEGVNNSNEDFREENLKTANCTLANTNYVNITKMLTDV

[5] = target: Rat whole blood (Rattus norvegicus, UniProt P15384); type: cell-based; conditions: IL-17A release, thapsigargin, 24 Hr, at least 2 replicates
Chain of Rat whole blood (P15384 whole entry): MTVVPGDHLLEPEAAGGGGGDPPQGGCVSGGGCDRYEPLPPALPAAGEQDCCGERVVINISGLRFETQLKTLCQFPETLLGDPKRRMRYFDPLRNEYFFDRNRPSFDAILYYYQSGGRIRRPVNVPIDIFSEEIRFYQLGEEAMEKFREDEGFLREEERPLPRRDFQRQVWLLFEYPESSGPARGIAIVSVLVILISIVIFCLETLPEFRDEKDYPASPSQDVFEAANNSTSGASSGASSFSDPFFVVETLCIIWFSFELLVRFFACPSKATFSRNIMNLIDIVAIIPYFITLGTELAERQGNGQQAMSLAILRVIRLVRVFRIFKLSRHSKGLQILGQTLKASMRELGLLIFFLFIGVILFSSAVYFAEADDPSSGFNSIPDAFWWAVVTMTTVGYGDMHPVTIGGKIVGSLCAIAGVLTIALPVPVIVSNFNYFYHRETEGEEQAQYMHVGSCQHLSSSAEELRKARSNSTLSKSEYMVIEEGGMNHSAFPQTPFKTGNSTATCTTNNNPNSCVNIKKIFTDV

[6] = ratio of patch clamp IC50 values

T1 sequence (Q09470 whole entry): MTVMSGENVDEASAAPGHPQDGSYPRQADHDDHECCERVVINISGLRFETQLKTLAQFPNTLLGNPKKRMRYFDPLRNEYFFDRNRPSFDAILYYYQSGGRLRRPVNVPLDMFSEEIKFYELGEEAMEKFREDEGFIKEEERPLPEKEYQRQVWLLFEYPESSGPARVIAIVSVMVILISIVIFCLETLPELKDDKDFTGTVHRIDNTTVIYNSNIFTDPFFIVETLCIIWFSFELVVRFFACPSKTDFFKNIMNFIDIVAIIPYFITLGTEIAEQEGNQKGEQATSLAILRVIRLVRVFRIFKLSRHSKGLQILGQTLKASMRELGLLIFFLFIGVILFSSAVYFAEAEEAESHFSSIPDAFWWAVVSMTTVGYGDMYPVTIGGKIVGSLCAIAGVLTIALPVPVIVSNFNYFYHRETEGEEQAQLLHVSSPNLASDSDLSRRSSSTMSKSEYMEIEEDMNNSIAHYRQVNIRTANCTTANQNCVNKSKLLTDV

## CC[C@H](C)[C@H](N)C(=O)N[C@@H](CC(N)=O)C(=O)N[C@H](C(=O)N[C@@H](CCCCN)C(=O)N[C@H]1CSSC[C@@H]2NC(=O)[C@H](CCCCN)NC(=O)CNC(=O)[C@H](Cc3ccccc3)NC(=O)[C@H](CCCNC(=N)N)NC(=O)[C@H](CCSC)NC(=O)CNC(=O)[C@H](C)NC(=O)[C@H](CC(=O)O)NC(=O)[C@H](CCCCN)NC(=O)[C@@H]3CSSC[C@@H](C(=O)N[C@@H](Cc4ccc(O)cc4)C(=O)N[C@@H](CO)C(=O)O)NC(=O)[C@H](CCCNC(=N)N)NC(=O)[C@H](CSSC[C@H](NC(=O)[C@H](CCC(N)=O)NC(=O)[C@H](CCC(N)=O)NC(=O)[C@@H]4CCCN4C(=O)[C@H](CC(C)C)NC(=O)[C@H](CO)NC1=O)C(=O)N[C@@H]([C@@H](C)CC)C(=O)N[C@@H](CCCCN)C(=O)N1CCC[C@H]1C(=O)N3)NC(=O)[C@H](CCCCN)NC(=O)[C@H](CCCCN)NC(=O)[C@H](CC(N)=O)NC(=O)[C@H](CCSC)NC2=O)C(C)C [Moka1]
[1]
  Selectivity ratio Kv1.1/Kv1.3: >300
[2]
  Selectivity ratio Kv1.6/Kv1.3: >300
[3]
  anti-CD3 PBMC/IL-2 IC50: less potent in inhibiting IL-2 secretion
[4]
  Selectivity ratio Kv1.2/Kv1.3: 31

## CC[C@H](C)[C@@H]1NC(=O)[C@H](C)NC(=O)[C@H](CCCCN)NC(=O)[C@H](CC(C)C)NC(=O)[C@@H]2CSSC[C@@H](C(=O)N[C@@H](Cc3ccc(O)cc3)C(=O)N3CCC[C@H]3C(=O)N[C@@H](CCCNC(=N)N)C(N)=O)NC(=O)[C@H](CCCCN)NC(=O)[C@@H]3CSSC[C@H](NC(=O)[C@H](CCC(=O)O)NC(=O)[C@H](C(C)C)NC(=O)[C@H](CO)NC(=O)[C@H](C)NC(=O)[C@H](CO)NC(=O)[C@@H](NC(=O)[C@H](CCCNC(=N)N)NC(=O)[C@H](CCSC)NC(=O)[C@H](CC(=O)O)NC(=O)[C@H](CCSC)NC(=O)[C@@H](N)CC(N)=O)CSSC[C@H](NC(=O)[C@H](CCCCN)NC(=O)CNC(=O)[C@H](Cc4ccccc4)NC(=O)[C@H]([C@@H](C)CC)NC(=O)[C@H](CO)NC(=O)CNC1=O)C(=O)N[C@@H](CCSC)C(=O)N[C@@H](CC(N)=O)C(=O)N[C@@H](CCCCN)C(=O)N[C@@H](CCCCN)C(=O)N3)C(=O)N[C@@H](CCCCN)C(=O)N[C@@H](C(C)C)C(=O)N[C@@H](CCCCN)C(=O)N2 [compound 22] (H-NMDMRCSASVECKVKCLKAIGSIFGKCMNKKCKCYPR-NH2; disulfide 6-27, 12-32, 16-34)
[1]; [6]
  Selectivity ratio Kv1.1/Kv1.3: >7200
[5]
  IC50: 0.88 nM
[2]; [6]
  Selectivity ratio Kv1.6/Kv1.3: 2182
[3]
  IC50: 0.4 nM
[4]; [6]
  Selectivity ratio Kv1.2/Kv1.3: 159

## CC[C@H](C)[C@@H]1NC(=O)[C@H](C)NC(=O)[C@H](CCCCN)NC(=O)[C@H](CC(C)C)NC(=O)[C@@H]2CSSC[C@@H](C(=O)N[C@@H](Cc3ccc(O)cc3)C(=O)N3CCC[C@H]3C(=O)N[C@@H](CCCNC(=N)N)C(N)=O)NC(=O)[C@H](CCCCN)NC(=O)[C@@H]3CSSC[C@H](NC(=O)[C@H](CCC(=O)O)NC(=O)[C@H](C(C)C)NC(=O)[C@H](CO)NC(=O)[C@H](C)NC(=O)[C@H](CO)NC(=O)[C@@H](NC(=O)[C@H](CCCNC(=N)N)NC(=O)[C@H](CCSC)NC(=O)[C@H](CC(=O)O)NC(=O)[C@H](CCSC)NC(=O)[C@@H](N)CC(N)=O)CSSC[C@H](NC(=O)[C@H](CCCCN)NC(=O)CNC(=O)[C@H](Cc4ccccc4)NC(=O)[C@H](CCCNC(=N)N)NC(=O)[C@H](CO)NC(=O)CNC1=O)C(=O)N[C@@H](CCSC)C(=O)N[C@@H](CC(N)=O)C(=O)N[C@@H](CCCCN)C(=O)N[C@@H](CCCCN)C(=O)N3)C(=O)N[C@@H](CCCCN)C(=O)N[C@@H](CCC(N)=O)C(=O)N[C@@H](CCCCN)C(=O)N2 [compound 39] (H-NMDMRCSASVECKQKCLKAIGSRFGKCMNKKCKCYPR-NH2; disulfide 6-27, 12-32, 16-34)
[1]; [6]
  Selectivity ratio Kv1.1/Kv1.3: >15000
[5]
  IC50: 2.5 nM
[2]; [6]
  Selectivity ratio Kv1.6/Kv1.3: 963
[3]
  IC50: 0.1 nM
[4]; [6]
  Selectivity ratio Kv1.2/Kv1.3: 88

## CCCC[C@@H]1NC(=O)[C@@H]2CSSC[C@H](NC(=O)[C@H](CCCNC(=N)N)NC(=O)[C@H](CCSC)NC(=O)[C@H](CC(=O)O)NC(=O)[C@H](CCSC)NC(=O)[C@@H](N)CC(N)=O)C(=O)N[C@@H](CO)C(=O)N[C@@H](C)C(=O)N[C@@H](CO)C(=O)N[C@@H](C(C)C)C(=O)N[C@@H](CCC(=O)O)C(=O)N[C@H]3CSSC[C@H](NC(=O)[C@H](CCCCN)NC(=O)[C@H](CCCCN)NC(=O)[C@H](CC(N)=O)NC1=O)C(=O)N[C@@H](CCCCN)C(=O)N[C@H](C(=O)N[C@@H](Cc1ccc(O)cc1)C(=O)N1CCC[C@H]1C(=O)N[C@@H](CCCNC(=N)N)C(N)=O)CSSC[C@H](NC(=O)[C@H](CCCCN)NC(=O)[C@H](CCC(N)=O)NC(=O)[C@H](CCCCN)NC3=O)C(=O)N[C@@H](CC(C)C)C(=O)N[C@@H](CCCCN)C(=O)N[C@@H](C)C(=O)N[C@@H]([C@@H](C)CC)C(=O)NCC(=O)N[C@@H](CO)C(=O)N[C@@H]([C@@H](C)CC)C(=O)N[C@@H](Cc1ccccc1)C(=O)NCC(=O)N[C@@H](CCCCN)C(=O)N2 [compound 21] (H-NMDMRCSASVECKQKCLKAIGSIFGKC[Nle]NKKCKCYPR-NH2; disulfide 6-27, 12-32, 16-34)
[1]; [6]
  Selectivity ratio Kv1.1/Kv1.3: >12600
[2]; [6]
  Selectivity ratio Kv1.6/Kv1.3: 10360
[3]
  IC50: 0.05 nM
[4]; [6]
  Selectivity ratio Kv1.2/Kv1.3: 561

## CC[C@H](C)[C@@H]1NC(=O)[C@H](C)NC(=O)[C@H](CC(=O)O)NC(=O)[C@H](CC(C)C)NC(=O)[C@@H]2CSSC[C@@H](C(=O)N[C@@H](Cc3ccc(O)cc3)C(=O)N3CCC[C@H]3C(=O)N[C@@H](CCCNC(=N)N)C(N)=O)NC(=O)[C@H](CCCCN)NC(=O)[C@@H]3CSSC[C@H](NC(=O)[C@H](CCC(=O)O)NC(=O)[C@H](C(C)C)NC(=O)[C@H](CO)NC(=O)[C@H](C)NC(=O)[C@H](CO)NC(=O)[C@@H](NC(=O)[C@H](CCCNC(=N)N)NC(=O)[C@H](CCSC)NC(=O)[C@H](CC(=O)O)NC(=O)[C@H](CCSC)NC(=O)[C@@H](N)CC(N)=O)CSSC[C@H](NC(=O)[C@H](CCCCN)NC(=O)CNC(=O)[C@H](Cc4ccccc4)NC(=O)[C@H]([C@@H](C)CC)NC(=O)[C@H](CO)NC(=O)CNC1=O)C(=O)N[C@@H](CCSC)C(=O)N[C@@H](CC(N)=O)C(=O)N[C@@H](CCCCN)C(=O)N[C@@H](CCCCN)C(=O)N3)C(=O)N[C@@H](CCCCN)C(=O)N[C@@H](CCC(N)=O)C(=O)N[C@@H](CCCCN)C(=O)N2 [compound 25] (H-NMDMRCSASVECKQKCLDAIGSIFGKCMNKKCKCYPR-NH2; disulfide 6-27, 12-32, 16-34)
[1]; [6]
  Selectivity ratio Kv1.1/Kv1.3: >14300
[5]
  IC50: 1.2 nM
[2]; [6]
  Selectivity ratio Kv1.6/Kv1.3: 12045
[3]
  IC50: 0.1 nM
[4]; [6]
  Selectivity ratio Kv1.2/Kv1.3: 471
